# Like-named read-outs stand apart in the source and are kept apart here.
# Assays:
# [1] = target: p53 Y220C (Homo sapiens, UniProt P04637, Y220C); experiment: Luciferase Reporter Assay (Luc), p53 response element, NClH1299 cells with inducible p53 Y220C; assay type: cell-based; conditions: luciferase reporter, NClH1299 inducible p53 Y220C, 6 hour; for AC50: read-out: Luc P53 Y220C AC50
# Procedure: Luciferase Reporter Assay Protocol
# The cells were then used for p53 reporter assay. 5,000 cells were seeded in each well of 384 plate and cultured in 0.5 ug/mL doxycycline (D3072; Sigma) containing medium for 24 hours before compound treatment. After 6 hour of compound treatment, equal volume of One-Glo reagent (E6110; Promega) was added to each well and the plate was incubated for 5 minutes with shaking at room temperature. The luciferase activity was immediately measured with PheraStar microplate reader.
# [2] = system: H1299 p53 R273H; experiment: Cell Proliferation Assay (CellTiter-Glo, CTG), H1299 p53 R273H (NClH1299-inducible p53 R273H); assay type: cell-based; conditions: Homo sapiens, NCI-H1299, 120 h, CellTiter-Glo, 5 days
# Procedure: (§1) Inducible p53 Y220C and R273H constructs (Tet-One inducible expression system; Takara) were stably expressed in NClH1299 cells by lentiviral transduction. NUGC3, A549, BxPC3, T3M4, HuH7, HCC2935, MFE296, NClH1299, NClH1299-inducible p53 Y220C, and NClH1299-inducible p53 R273H cell lines were used for cell proliferation assay. 250-500 cells were seeded in each well of 384 plate and then compounds were dispensed into each well using Echo or Tecan. After 5 days of incubation, equal volume of CellTiter-Glo reagent (G7570; Promega) was added into each well and the plate was incubated at room temperature for 10 minutes with shaking. The luminescent signal was measured by PheraStar microplate reader and IC50 was calculated.
# [3] = system: NUGC3 p53 Y220C; experiment: Cell Proliferation Assay (CellTiter-Glo, CTG), NUGC3 p53 Y220C; assay type: cell-based; conditions: Homo sapiens, NUGC-3, 120 h, CellTiter-Glo, 5 days
# Procedure: as §1
# [4] = target: T1, p53 Y220C mutant protein (amino acid residues 94-293) (Homo sapiens, UniProt P04637, Y220C); experiment: Surface Plasmon Resonance (SPR) assay, Kd_kinetic; assay type: binding; conditions: SPR, p53 Y220C, read-out: SPR P53 Y220C KD kinetic
# T1 construct: p53 Y220C mutant protein (amino acid residues 94-293)
# T1 sequence (P04637 94-293, stated change not applied): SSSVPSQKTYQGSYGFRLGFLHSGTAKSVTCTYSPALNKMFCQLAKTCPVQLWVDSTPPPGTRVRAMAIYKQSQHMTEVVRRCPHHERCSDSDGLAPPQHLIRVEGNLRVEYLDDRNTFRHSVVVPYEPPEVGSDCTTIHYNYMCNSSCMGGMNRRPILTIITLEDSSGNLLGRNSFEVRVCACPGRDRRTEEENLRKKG
# Procedure: Surface Plasmon Resonance (SPR) Assay Protocol
# SPR experiments were performed on a Biacore 8K instrument. […] The running buffer contained 50 mM Tris, pH 7.5, 100 mM NaCl, 1 mM DTT, 0.01% Brij35, 0.05% Tween-20 and 1% DMSO. The assay temperature was maintained at 16 or 20 °C and data were fit into the 1:1 binding model using the Biacore Insight Evaluation software.
# [5] = system: H1299 p53 Y220C; experiment: Cell Proliferation Assay (CellTiter-Glo, CTG), H1299 p53 Y220C (NClH1299-inducible p53 Y220C); assay type: cell-based; conditions: Homo sapiens, NCI-H1299, 120 h, CellTiter-Glo, 5 days
# Procedure: as §1
# [6] = 10 uM tool compound as positive control
# [7] = NClH1299-inducible p53 R273H cells
# [8] = NClH1299-inducible p53 Y220C cells
"Emax [1, 6] [%]",AC50 [1] [nM],IC50 ([2]; H1299 p53 R273H) [nM],Kd ([4]; kinetic KD) [nM],IC50 ([5]; H1299 p53 Y220C) [nM],AC50 ([1]; AC50) [nM],Emax ([1]; Emax) [%],"IC50 [2, 7] [nM]",Kd [4] [nM],"IC50 [5, 8] [nM]",Structure (SMILES),IC50 ([3]; NUGC3 p53 Y220C) [nM],IC50 ([3]; NUGC3 cells) [nM]
< 70,> 3000,≥ 10000,10 to 100,> 3000,,,,,,CNC(=O)c1ccc(NCC#Cc2nn3c(N[C@@H]4CCN(C)C[C@@H]4F)ccnc3c2SC(F)(F)F)c(OC)c1 [Example 205],> 3000,
> 90,< 750,≥ 10000,< 10,< 750,,,,,,CNC(=O)c1ccc(OC)c(NCC#Cc2cc3c(N[C@@H]4CN(C)C[C@@H]4F)nccn3c2SC(F)(F)F)c1 [Example 208],< 750,
> 90,< 750,≥ 10000,< 10,750 to 1500,,,,,,CNC(=O)c1ccc(OC)c(NCC#Cc2cc3c(N[C@@H]4CNC[C@@H]4F)nccn3c2SC(F)(F)F)c1 [Example 209],< 750,
80 to 90,750 to 1500,≥ 10000,< 10,750 to 1500,,,,,,CNC(=O)c1ccc(OC)c(NCC#Cc2cc3c(N[C@@H]4CNC[C@@H]4F)nccn3c2SC(F)(F)F)n1 [Example 210],750 to 1500,
80 to 90,< 750,≥ 10000,< 10,< 750,,,,,,CNC(=O)c1ccc(OC)c(NCC#Cc2cc3c(N[C@@H]4CN(C)C[C@@H]4F)nccn3c2SC(F)(F)F)n1 [Example 211],750 to 1500,
> 90,< 750,≥ 10000,< 10,< 750,,,,,,"CNC(=O)c1ccc(NCC#Cc2nn3c(N[C@@H]4CCN(C)C[C@@H]4F)nccc3c2SC(F)(F)F)c(OC)c1 [Example 214, 4-{[3-(7-{[(3S,4R)-3-fluoro-1-methylpiperidin-4-yl]amino}-3-[(trifluoromethyl)sulfanyl]pyrazolo[1,5-c]pyrimidin-2-yl)prop-2-yn-1-yl]amino}-3-methoxy-N-methylbenzamide]",< 750,
< 70,> 3000,< 5000,10 to 100,1500 to 3000,,,,,,"CNC(=O)c1ccc(OC)c(NCC#Cc2nn3c(N[C@@H]4CCN(C)C[C@@H]4F)ccnc3c2SC(F)(F)F)c1 [Example 216, 3-{[3-(7-{[(3S,4R)-3-fluoro-1-methylpiperidin-4-yl]amino}-3-[(trifluoromethyl)sulfanyl]pyrazolo[1,5-a]pyrimidin-2-yl)prop-2-yn-1-yl]amino}-4-methoxy-N-methylbenzamide]",1500 to 3000,
70 to 80,< 750,< 5000,< 10,< 750,,,,,,COc1ccc(-c2ncc[nH]2)cc1NCC#Cc1nc2c(N[C@@H]3CCN(C)C[C@@H]3F)cccn2c1SC(F)(F)F [Example 220],< 750,
70 to 80,< 750,< 5000,< 10,< 750,,,,,,COc1cc(C(=O)NCCN(C)C)ccc1NCC#Cc1nc2c(N[C@@H]3CCOC[C@@H]3F)cccn2c1SC(F)(F)F [Example 221],< 750,
,,,,,< 750,> 90,≥ 10000,< 10,< 750,CNC(=O)c1ccc(C#N)c(NCC#Cc2nc3c(N[C@@H]4CCN(C)C[C@@H]4F)cccn3c2SC(F)(F)F)c1 [Example 224],,< 750
,,,,,750 to 1500,70 to 80,5000 to 8000,< 10,750 to 1500,CNC(=O)c1ccc(NCC#Cc2nc3c(N[C@@H]4CCOC[C@@H]4F)cccn3c2SC(F)(F)F)c(OCCN(C)C)c1 [Example 226],,750 to 1500
,,,,,> 3000,< 70,≥ 10000,< 10,> 3000,COc1ccc(C(=O)NCC2CN(C)C2)cc1NCC#Cc1nc2c(N[C@@H]3CCOC[C@@H]3F)cccn2c1SC(F)(F)F [Example 228],,< 750
,,,,,1500 to 3000,80 to 90,≥ 10000,10 to 100,1500 to 3000,CNC(=O)c1ccc(NCC#Cc2nc3c(N[C@@H]4CCS(=O)(=O)C4)cccn3c2SC(F)(F)F)c(OC)c1 [Example 230],,1500 to 3000
,,,,,< 750,80 to 90,≥ 10000,< 10,< 750,COc1ccc(C(N)=O)cc1NCC#Cc1nn2c(N[C@@H]3CCN(C)C[C@@H]3F)cccc2c1SC(F)(F)F [Example 232],,< 750
,,,,,750 to 1500,80 to 90,≥ 10000,< 10,750 to 1500,COc1ccc(C(N)=O)nc1NCC#Cc1nn2c(N[C@@H]3CCN(C)C[C@@H]3F)cccc2c1SC(F)(F)F [Example 235],,1500 to 3000
,,,,,< 750,> 90,8000 to 10000,< 10,< 750,CNC(=O)c1ccc(OC)c(NCC#Cc2nc3c(NC4COC4)cccn3c2SC(F)(F)F)c1 [Example 240],,< 750
,,,,,> 3000,80 to 90,≥ 10000,< 10,1500 to 3000,CNC(=O)c1ccc(OC)c(NCC#Cc2nc3c(N[C@H]4[C@H]5CC[C@@H]4NC5)cccn3c2SC(F)(F)F)c1 [Example 244],,750 to 1500
,,,,,1500 to 3000,70 to 80,8000 to 10000,< 10,1500 to 3000,CNC(=O)c1ccc(OC)c(NCC#Cc2nc3c(N[C@@H]4[C@@H]5CC[C@H]4NC5)cccn3c2SC(F)(F)F)c1 [Example 247],,750 to 1500
,,,,,750 to 1500,70 to 80,5000 to 8000,< 10,750 to 1500,CNC(=O)c1ccc(OC)c(NCC#Cc2nc3c(N[C@H]4C[C@@H]5CC[C@H]4N5C)cccn3c2SC(F)(F)F)c1 [Example 248],,750 to 1500
,,,,,750 to 1500,< 70,5000 to 8000,< 10,750 to 1500,CNC(=O)c1ccc(OC)c(NCC#Cc2nc3c(N[C@@H]4C[C@@H]5CC[C@H]4N5C)cccn3c2SC(F)(F)F)c1 [Example 249],,750 to 1500
,,,,,< 750,> 90,≥ 10000,< 10,< 750,CNC(=O)c1cc(NCC#Cc2nc3c(N[C@@H]4CCN(C)C[C@@H]4F)cccn3c2SC(F)(F)F)c(OC)nn1 [Example 259],,< 750
,,,,,750 to 1500,70 to 80,≥ 10000,< 10,< 750,CNC(=O)c1ccc(OC)c(NCC#Cc2nc3c(N[C@@H]4CN(C)C[C@@H]4F)cccn3c2CC(F)(F)F)n1 [Example 262],,750 to 1500
,,,,,> 3000,70 to 80,≥ 10000,< 10,1500 to 3000,CNC(=O)c1ccc(OC)c(NCC#Cc2nc3c(N[C@@H]4CNC[C@@H]4F)cccn3c2CC(F)(F)F)n1 [Example 263],,750 to 1500
,,,,,< 750,70 to 80,≥ 10000,< 10,< 750,CNC(=O)c1cnc(OC)c(NCC#Cc2nc3c(N[C@H]4C[C@@H]5CC[C@H]([C@H]4F)N5C)cccn3c2SC(F)(F)F)c1 [Example 266],,< 750

# From US20260374766A1, “METHODS FOR TREATING CANCER” (Antares Therapeutics, Inc., priority 2022, published 2026)
